Source: patent US11945822B2, “Pyrazolo-triazine and/or pyrazolo-pxrimidine derivatives as selective inhibitor of cyclin dependent kinase” (QURIENT CO., LTD., priority 2018, dated 2024)

How the values were obtained:
A2780 = test: Cellular A2780 viability assay (CellTiter-Glo, 72 hours); assay type: cell-based; conditions: Homo sapiens
Procedure, shortened: (§1)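 Cells seeded at 1×10^4/well (MM.1S), 5×10^3 (OVCAR-3) or 1×10^3 (A2780), grown in RPMI-1640 with 10% FBS. After 24 h, compound added at 0.0015–10 uM, final DMSO below 0.1%, for 72 h at 37° C. Viability read by CellTiter-Glo luminescence in duplicate, with curve fitting.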

CDK2/Cyclin A = biological target: T1, CDK2/Cyclin A (Homo sapiens, UniProt P24941); test: Enzymatic assay for CDK2 (FRET based LANCE Ultra kinase assay); assay type: biochemical; conditions: read-out: CDK2 enzymatic activity (IC50 range)
T1 construct: purchased Invitrogen PV6290
Procedure, shortened: (§2)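 LANCE Ultra TR-FRET: ULight-MBP peptide (68 nM) with ATP at Km, […], 60 min at 23° C. EDTA plus Eu-anti-phospho-MBP added, another 60 min, then 665/615 nm emission read. Compounds tested as 8-dose 4-fold DMSO dilutions.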

MV4-11 = test: Cellular MV4-11 viability assay (CellTiter-Glo, 72 hours); assay type: cell-based; conditions: Homo sapiens
Procedure, shortened: (§3)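 Cells were plated at line-specific densities and exposed to compound for 72 hours at 37 °C, 5% CO2, with DMSO-only wells as control (final DMSO below 0.1%). Viability was measured by CellTiter-Glo luminescence in duplicate.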

MOLT-4 = test: Cellular MOLT-4 viability assay (CellTiter-Glo, 72 hours); assay type: cell-based; conditions: Homo sapiens, MOLT4 viability assay
Procedure, shortened: as §3

HCT116 = test: Cellular HCT116 viability assay (CellTiter-Glo, 72 hours); assay type: cell-based; conditions: Homo sapiens, HCT-116
Procedure, shortened: as §3

MM.1S = test: Cellular MM.1S viability assay (CellTiter-Glo, 72 hours); assay type: cell-based; conditions: Homo sapiens, MM1.S
Procedure, shortened: as §1

RPMI-8226 = test: Cellular RPMI-8226 viability assay (CellTiter-Glo, 72 hours); assay type: cell-based; conditions: Homo sapiens
Procedure, shortened: as §3

H460 = test: Cellular H460 viability assay (CellTiter-Glo, 72 hours); assay type: cell-based; conditions: Homo sapiens, NCI-H460
Procedure, shortened: as §3

CDK1/Cyclin B = biological target: T2, CDK1/Cyclin B (Homo sapiens, UniProt P06493); test: Enzymatic assay for CDK1 (FRET based LANCE Ultra kinase assay); assay type: biochemical; conditions: read-out: CDK1 enzymatic activity (IC50 range)
T2 construct: purchased Invitrogen PR4768C
T2 sequence (P06493 whole entry): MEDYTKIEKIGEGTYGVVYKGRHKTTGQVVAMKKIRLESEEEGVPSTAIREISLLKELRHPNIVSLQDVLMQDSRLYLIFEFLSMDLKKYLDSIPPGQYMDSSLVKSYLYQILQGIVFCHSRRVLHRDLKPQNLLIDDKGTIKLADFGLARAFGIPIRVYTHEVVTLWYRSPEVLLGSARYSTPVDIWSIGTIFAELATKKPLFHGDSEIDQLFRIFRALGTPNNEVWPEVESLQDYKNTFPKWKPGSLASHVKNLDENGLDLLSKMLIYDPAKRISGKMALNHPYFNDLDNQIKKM
T2 sequence (P14635 whole entry partner): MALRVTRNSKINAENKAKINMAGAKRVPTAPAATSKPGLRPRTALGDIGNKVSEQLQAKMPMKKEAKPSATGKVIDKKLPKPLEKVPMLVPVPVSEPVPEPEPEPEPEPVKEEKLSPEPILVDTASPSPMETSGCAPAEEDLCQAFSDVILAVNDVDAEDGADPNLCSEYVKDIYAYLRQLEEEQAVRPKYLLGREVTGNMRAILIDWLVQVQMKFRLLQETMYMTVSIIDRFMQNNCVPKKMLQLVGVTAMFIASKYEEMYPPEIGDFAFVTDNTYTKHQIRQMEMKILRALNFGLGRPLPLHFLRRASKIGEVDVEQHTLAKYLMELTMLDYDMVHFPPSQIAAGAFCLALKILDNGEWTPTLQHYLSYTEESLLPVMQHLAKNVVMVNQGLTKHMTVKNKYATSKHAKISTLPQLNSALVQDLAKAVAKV
Procedure, shortened: as §2

OVCAR-3 = test: Cellular OVCAR-3 viability assay (CellTiter-Glo, 72 hours); assay type: cell-based; conditions: Homo sapiens
Source text: Human T-cell acute lymphoblastic leukemia cell line, MOLT-4 (ATCC, Cat #CRL-1582), Human multiple myeloma cell line, RPMI-8226 (Invitrogen, Cat #22400-089) and MM.1S (ATCC, Cat #CRL-2974), NSCLC (Non-small cell lung cancer) cell line H460 (ATCC, Cat #HTB-177), Human colon colorectal carcinoma cell line HCT116 (ATCC, Cat #CCL-247), Human acute monocytic leukemia cell line MV4-11 (ATCC, Cat #CRL-9591), OVCAR-3 (ATCC, Cat #HTB-161) and A2780 (ECACC, Cat #93112519) were obtained from ATCC. Cells were grown in RPMI-1640 media (Invitrogen, Cat #22400-089) supplemented with 10% FBS (Invitrogen, Cat #10099141) and 1% penicillin/streptomycin (Invitrogen, Cat #15070063) and cultured at 37° C., 5% CO2 in a humidified chamber. All cell lines were routinely tested for mycoplasma.
The effect of the CDK7 inhibitor to inhibit the growth of target cancer cells was evaluated through the 72 hours time period of viability assay. Briefly, the candidate cell line ware plated in 96 well plate at the following density of cells respectively. 1×10^4 cells/well for MOLT-4, RPMI-8226, MV4-11 and MM.1S, 5×10^3 for H460, HCT116 and OVCAR-3 and IX 10^3 for A2780. After 24 hours, the cells were treated with various concentrations of the compound (ranging from 0.0015 uM to 10 uM). DMSO solvent without compound served as a control and final DMSO concentration less than 0.1%. After 72 hours of incubation at 37° C., 5% CO2 incubator, cells were analyzed for the viability using the CellTiter-Glo Luminescent Cell Viability Assay (Promega, Cat #G7570). All viability assays were performed in duplicate and Luminescence was read using an Envision (Perkin Elmer, USA). Data was analyzed using XLfit software.

CDK7/Cyclin H/MNAT1 = biological target: T3, CDK7/Cyclin H/MNAT1 (Homo sapiens, UniProt P50613); test: Enzymatic assay for CDK7 (FRET based LANCE Ultra kinase assay); assay type: biochemical; conditions: for IC50: read-out: CDK7 enzymatic activity (IC50 range)
T3 construct: purchased Invitrogen PR6749B
T3 sequence (P50613 whole entry): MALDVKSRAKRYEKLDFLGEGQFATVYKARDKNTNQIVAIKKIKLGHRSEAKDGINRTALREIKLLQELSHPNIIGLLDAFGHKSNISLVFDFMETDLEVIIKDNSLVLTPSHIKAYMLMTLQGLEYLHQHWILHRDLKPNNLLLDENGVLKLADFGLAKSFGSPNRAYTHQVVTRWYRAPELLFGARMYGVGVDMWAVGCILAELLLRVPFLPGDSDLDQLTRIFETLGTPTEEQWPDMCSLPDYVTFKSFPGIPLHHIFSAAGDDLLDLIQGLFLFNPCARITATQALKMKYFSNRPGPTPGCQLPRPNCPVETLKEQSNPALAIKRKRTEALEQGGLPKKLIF
T3 sequence (P51946 whole entry partner): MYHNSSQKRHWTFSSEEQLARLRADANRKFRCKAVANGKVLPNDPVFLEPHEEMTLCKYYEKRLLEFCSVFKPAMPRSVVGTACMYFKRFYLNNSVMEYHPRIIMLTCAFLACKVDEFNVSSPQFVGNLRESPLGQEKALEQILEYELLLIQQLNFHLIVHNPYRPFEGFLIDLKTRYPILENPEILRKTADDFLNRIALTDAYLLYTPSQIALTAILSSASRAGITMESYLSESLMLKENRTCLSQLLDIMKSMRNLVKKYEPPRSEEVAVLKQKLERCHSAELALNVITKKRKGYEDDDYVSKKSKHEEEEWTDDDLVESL
T3 sequence (P51948 whole entry partner): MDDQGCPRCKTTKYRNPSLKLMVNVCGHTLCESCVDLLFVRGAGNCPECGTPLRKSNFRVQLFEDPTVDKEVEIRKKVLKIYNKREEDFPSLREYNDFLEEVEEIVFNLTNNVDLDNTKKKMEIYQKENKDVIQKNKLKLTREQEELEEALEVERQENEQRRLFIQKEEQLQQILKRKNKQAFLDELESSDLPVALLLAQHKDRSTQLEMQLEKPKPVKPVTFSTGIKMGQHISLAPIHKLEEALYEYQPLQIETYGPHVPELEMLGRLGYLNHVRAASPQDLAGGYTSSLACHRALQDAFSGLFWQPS
Procedure, shortened: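 LANCE Ultra TR-FRET kinase assay using a ULight-labeled peptide substrate and a Eu-labeled anti-phospho antibody, with ATP at its Km. Purified CDK/cyclin complex was added to compound after brief centrifugation.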

CDK5/p25 = biological target: T4, CDK5/p25 (Homo sapiens, UniProt Q00535); test: Enzymatic assay for CDK5 (FRET based LANCE Ultra kinase assay); assay type: biochemical; conditions: read-out: CDK5 enzymatic activity (IC50 range)
T4 construct: purchased Invitrogen PR8543B
T4 sequence (Q00535 whole entry): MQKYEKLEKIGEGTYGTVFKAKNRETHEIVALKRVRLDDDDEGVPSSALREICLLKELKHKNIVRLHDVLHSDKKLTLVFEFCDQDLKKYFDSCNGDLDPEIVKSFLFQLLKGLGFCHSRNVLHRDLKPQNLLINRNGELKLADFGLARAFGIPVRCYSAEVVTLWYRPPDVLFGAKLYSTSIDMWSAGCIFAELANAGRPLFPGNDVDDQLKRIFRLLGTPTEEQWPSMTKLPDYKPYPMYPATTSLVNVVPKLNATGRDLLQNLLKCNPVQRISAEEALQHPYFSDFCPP
T4 sequence (Q15078 99-307 partner limits assumed): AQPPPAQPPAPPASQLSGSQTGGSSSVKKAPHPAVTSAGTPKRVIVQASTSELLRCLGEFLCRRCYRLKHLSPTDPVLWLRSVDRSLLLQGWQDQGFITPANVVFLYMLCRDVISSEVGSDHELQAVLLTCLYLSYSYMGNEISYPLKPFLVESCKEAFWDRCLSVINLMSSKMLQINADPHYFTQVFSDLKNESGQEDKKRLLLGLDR
Procedure, shortened: as §2

Question: Which results are given for CC(C)c1cnn2c(NCc3ccccc3-c3ccc4ccccc4n3)nc(N3CCC(N)CC3)nc12 [Compound 48]?
Answer: IC50 (A2780): ≤ 1000 nM; IC50 (CDK2/Cyclin A): > 1000 nM; IC50 (MV4-11): < 1000 nM; IC50 (MOLT-4): 1 to 10 µM; IC50 (HCT116): < 1000 nM; IC50 (MM.1S): ≤ 1000 nM; IC50 (RPMI-8226): < 1000 nM; IC50 (H460): < 1000 nM; IC50 (CDK1/Cyclin B): > 1000 nM; IC50 (OVCAR-3): 1 to 10 µM; CDK1/CDK7: Selectivity of CDK7 inhibition over CDK1 inhibition (CDK7/Cyclin H/MNAT1): A (A=greater than 200 fold); CDK2/CDK7: Selectivity of CDK7 inhibition over CDK2 inhibition (CDK7/Cyclin H/MNAT1): A (A=greater than 200 fold); CDK5/CDK7: Selectivity of CDK7 inhibition over CDK5 inhibition (CDK7/Cyclin H/MNAT1): B (B=less than 200 fold, but greater than 20 fold); IC50 (CDK7/Cyclin H/MNAT1): < 100 nM; IC50 (CDK5/p25): 100 to 1000 nM

Question: CC(C)c1cnn2c(NCc3c(Cl)cccc3-c3cc4ccccc4[nH]3)nc(N3CCC(N)CC3)nc12 [Compound 182] was tested. Which IC50 (A2780) did it give?
Answer: ≤ 1000 nM

Question: What about the IC50 (CDK2/Cyclin A) of the same compound?
Answer: > 1000 nM

Question: And the IC50 (MV4-11)?
Answer: < 1000 nM

Question: And the IC50 (HCT116)?
Answer: < 1000 nM

Question: And the IC50 (MM.1S)?
Answer: ≤ 1000 nM

Question: And the IC50 (RPMI-8226)?
Answer: < 1000 nM

Question: What about the IC50 (H460) of the same compound?
Answer: < 1000 nM

Question: What about the IC50 (CDK1/Cyclin B) of the same compound?
Answer: > 1000 nM

Question: And the IC50 (OVCAR-3)?
Answer: 1 to 10 µM

Question: What about the “CDK1/CDK7: Selectivity of CDK7 inhibition over CDK1 inhibition” value (CDK7/Cyclin H/MNAT1) of the same compound?
Answer: A (A=greater than 200 fold)

Question: What about the “CDK2/CDK7: Selectivity of CDK7 inhibition over CDK2 inhibition” value (CDK7/Cyclin H/MNAT1) of the same compound?
Answer: A (A=greater than 200 fold)

Question: And the “CDK5/CDK7: Selectivity of CDK7 inhibition over CDK5 inhibition” value (CDK7/Cyclin H/MNAT1)?
Answer: A (A=greater than 200 fold)

Question: What about the IC50 (CDK7/Cyclin H/MNAT1) of the same compound?
Answer: < 100 nM

Question: And the IC50 (CDK5/p25)?
Answer: > 1000 nM

Question: What does the source list for CC(C)c1cnn2c(NCc3c(Cl)cccc3-c3ccc4ccccc4n3)nc(N3CCC(N)CC3)nc12 [Compound 194]?
Answer: IC50 (A2780): ≤ 1000 nM; IC50 (CDK2/Cyclin A): > 1000 nM; IC50 (MV4-11): < 1000 nM; IC50 (HCT116): < 1000 nM; IC50 (MM.1S): ≤ 1000 nM; IC50 (H460): < 1000 nM; IC50 (CDK1/Cyclin B): > 1000 nM; IC50 (OVCAR-3): 1 to 10 µM; CDK1/CDK7: Selectivity of CDK7 inhibition over CDK1 inhibition (CDK7/Cyclin H/MNAT1): A (A=greater than 200 fold); CDK2/CDK7: Selectivity of CDK7 inhibition over CDK2 inhibition (CDK7/Cyclin H/MNAT1): A (A=greater than 200 fold); CDK5/CDK7: Selectivity of CDK7 inhibition over CDK5 inhibition (CDK7/Cyclin H/MNAT1): A (A=greater than 200 fold); IC50 (CDK7/Cyclin H/MNAT1): < 100 nM; IC50 (CDK5/p25): > 1000 nM
